According to PMC10251477, “Doubly Constrained C-terminal of Roc (COR) Domain-Derived Peptides Inhibit Leucine-Rich Repeat Kinase 2 (LRRK2) Dimerization” (ACS Chemical Neuroscience, 2023):
Where “and” joins values, the source holds several entries; their conditions need not be identical. Identical values can stand only once. Bridge positions count the residues as written; N and C are the ends. Square brackets hold non-standard residues; d marks the D form. Peptide text beside a SMILES is read from it. * marks the point of attachment. 5FAM = O=C1OC2(c3ccc(O)cc3Oc3cc(O)ccc32)c2ccc(C(=O)*)cc21; S5 = C=CCCC[C@](C)(N)C(=O)O; AEEEA = NCCOCCOCCOCC(=O)O

How the values were obtained:
[1] = system: LRRK2 substrate Rab10 (phospho-T73) in A549 PPM1H knockout cells; experiment: Rab10 phosphorylation immunoblotting (LRRK2 kinase activity); assay type: cell-based; details: Western blot; for downregulation of Rab10 phosphorylation: 1 μM and 2.5 μM peptide (both concentrations), 6 h, pRab10 T73 over total Rab10, normalized to GAPDH and untreated control
Procedure: A549 PPM1H knockout cells were treated with 1 μM and 2.5 μM of doubly constrained peptide for 6 h. Cells treated with 1 μM MLi-2 were used as a positive control. Cell lysates were separated by SDS-PAGE and transferred to PVDF membranes by wet transfer. pRab10 T73 and total Rab10 signals were blotted on different membranes with GAPDH as a loading control on the same membrane to save the membrane from the stripping step. The membranes were blocked in nonfat milk and probed with Rab10 (phospho-T73) (Abcam; ab241060, Lot; GR327 4620-4), total Rab10 (Cell Signaling Technology; #4262S), and total GAPDH (14C10) (Cell Signaling Technology; #2118S) antibodies overnight at 4 °C, followed by incubation with HRP anti-rabbit secondary antibody, and developed using ECL. The blots were quantified using Image Studio Lite version 5.2 by selecting the bands to obtain the intensity for each band. The phospho-Rab10, total Rab10, and GAPDH signal for every sample were normalized to its untreated control for the same day. The phospho-Rab10 and total Rab10 signal was further normalized to the GAPDH signal (loading control) on the same blot. The graph was plotted with GAPDH normalized phospho-Rab10 signal over total Rab10 signal for every sample (*normalized to untreated sample). [drawing 1]

in vitro = in vitro ADME; details: human, cells or culture medium
Procedure: Fully confluent HEK293 cells were lysed using ice-cold nondenaturing lysis buffer (20 mM Tris HCL, pH 8.0, 137 mM NaCl, 1% Triton X-100, 2 mM EDTA) and incubated for 30 min at 4 °C. Cells were centrifuged for 20 min at 12 000 rpm, and the supernatant was collected and kept on ice. […] Experiments were conducted at 37 °C with agitation for 0, 2, 4, and 6 h. Aliquots were collected and quenched at each indicated time point using an equal volume of 0.1% trifluoroacetic acid (TFA) in acetonitrile. This solution was then centrifuged at 14 000 rpm for 5 min, and the supernatant was used for analysis. Peptide degradation was analyzed on LC-MS using a Zorbax Eclipse XDB-C18 column as a ratio of peptide to control relative to peptide at t = 0 at 280 nm. A flow rate of 1.0 mL/min at 45 °C was used with a 0–100% water/acetonitrile gradient containing 0.1% TFA. Each individual peptide was analyzed in triplicate for each time point.

[2] = system: GFP-LRRK2 in HEK293 cells; experiment: LRRK2 microtubule localization assay in live cells; assay type: cell-based; details: HEK293 cells overexpressing GFP-LRRK2 24 h, 37 °C, SiR-tubulin stain, live imaging
Procedure: HEK293 cells were transfected with GFP–LRRK2 for 24 h and subsequently treated with DMSO, 1 μM MLi-2, and 2.5 μM ECOR or ECOR A12G peptide for 6 h at 37 °C. The transfected cells were scored single-blinded for skein-like filamentous structures per condition. For tubulin staining, after a 6 h incubation with DMSO, MLi-2, or biotin-labeled peptides, the media was replaced with media containing 1 μM SiR-tubulin (Spirochrome SiR-tubulin Kit (SC002)) and 10 μM verapamil (a broad spectrum efflux pump inhibitor) for 1 h at 37 °C. Live cells were imaged using the 63× oil-immersion objective of a Zeiss LSM800 confocal laser scanning microscope. The Zeiss microscope software ZEN was used to generate channel overlays.

[3] = biological target: T1, purified full-length LRRK2 dimer (Homo sapiens, UniProt Q5S007); experiment: Mass photometry assay of LRRK2 dimerization; assay type: biochemical; details: LRRK2 at 75 nM and 100 nM, 7.5-fold excess of peptide, 30 min, 30 °C, three measurements
T1 construct: Purified full-length LRRK2 was incubated for 30 min; made in house
T1 sequence (Q5S007 whole entry): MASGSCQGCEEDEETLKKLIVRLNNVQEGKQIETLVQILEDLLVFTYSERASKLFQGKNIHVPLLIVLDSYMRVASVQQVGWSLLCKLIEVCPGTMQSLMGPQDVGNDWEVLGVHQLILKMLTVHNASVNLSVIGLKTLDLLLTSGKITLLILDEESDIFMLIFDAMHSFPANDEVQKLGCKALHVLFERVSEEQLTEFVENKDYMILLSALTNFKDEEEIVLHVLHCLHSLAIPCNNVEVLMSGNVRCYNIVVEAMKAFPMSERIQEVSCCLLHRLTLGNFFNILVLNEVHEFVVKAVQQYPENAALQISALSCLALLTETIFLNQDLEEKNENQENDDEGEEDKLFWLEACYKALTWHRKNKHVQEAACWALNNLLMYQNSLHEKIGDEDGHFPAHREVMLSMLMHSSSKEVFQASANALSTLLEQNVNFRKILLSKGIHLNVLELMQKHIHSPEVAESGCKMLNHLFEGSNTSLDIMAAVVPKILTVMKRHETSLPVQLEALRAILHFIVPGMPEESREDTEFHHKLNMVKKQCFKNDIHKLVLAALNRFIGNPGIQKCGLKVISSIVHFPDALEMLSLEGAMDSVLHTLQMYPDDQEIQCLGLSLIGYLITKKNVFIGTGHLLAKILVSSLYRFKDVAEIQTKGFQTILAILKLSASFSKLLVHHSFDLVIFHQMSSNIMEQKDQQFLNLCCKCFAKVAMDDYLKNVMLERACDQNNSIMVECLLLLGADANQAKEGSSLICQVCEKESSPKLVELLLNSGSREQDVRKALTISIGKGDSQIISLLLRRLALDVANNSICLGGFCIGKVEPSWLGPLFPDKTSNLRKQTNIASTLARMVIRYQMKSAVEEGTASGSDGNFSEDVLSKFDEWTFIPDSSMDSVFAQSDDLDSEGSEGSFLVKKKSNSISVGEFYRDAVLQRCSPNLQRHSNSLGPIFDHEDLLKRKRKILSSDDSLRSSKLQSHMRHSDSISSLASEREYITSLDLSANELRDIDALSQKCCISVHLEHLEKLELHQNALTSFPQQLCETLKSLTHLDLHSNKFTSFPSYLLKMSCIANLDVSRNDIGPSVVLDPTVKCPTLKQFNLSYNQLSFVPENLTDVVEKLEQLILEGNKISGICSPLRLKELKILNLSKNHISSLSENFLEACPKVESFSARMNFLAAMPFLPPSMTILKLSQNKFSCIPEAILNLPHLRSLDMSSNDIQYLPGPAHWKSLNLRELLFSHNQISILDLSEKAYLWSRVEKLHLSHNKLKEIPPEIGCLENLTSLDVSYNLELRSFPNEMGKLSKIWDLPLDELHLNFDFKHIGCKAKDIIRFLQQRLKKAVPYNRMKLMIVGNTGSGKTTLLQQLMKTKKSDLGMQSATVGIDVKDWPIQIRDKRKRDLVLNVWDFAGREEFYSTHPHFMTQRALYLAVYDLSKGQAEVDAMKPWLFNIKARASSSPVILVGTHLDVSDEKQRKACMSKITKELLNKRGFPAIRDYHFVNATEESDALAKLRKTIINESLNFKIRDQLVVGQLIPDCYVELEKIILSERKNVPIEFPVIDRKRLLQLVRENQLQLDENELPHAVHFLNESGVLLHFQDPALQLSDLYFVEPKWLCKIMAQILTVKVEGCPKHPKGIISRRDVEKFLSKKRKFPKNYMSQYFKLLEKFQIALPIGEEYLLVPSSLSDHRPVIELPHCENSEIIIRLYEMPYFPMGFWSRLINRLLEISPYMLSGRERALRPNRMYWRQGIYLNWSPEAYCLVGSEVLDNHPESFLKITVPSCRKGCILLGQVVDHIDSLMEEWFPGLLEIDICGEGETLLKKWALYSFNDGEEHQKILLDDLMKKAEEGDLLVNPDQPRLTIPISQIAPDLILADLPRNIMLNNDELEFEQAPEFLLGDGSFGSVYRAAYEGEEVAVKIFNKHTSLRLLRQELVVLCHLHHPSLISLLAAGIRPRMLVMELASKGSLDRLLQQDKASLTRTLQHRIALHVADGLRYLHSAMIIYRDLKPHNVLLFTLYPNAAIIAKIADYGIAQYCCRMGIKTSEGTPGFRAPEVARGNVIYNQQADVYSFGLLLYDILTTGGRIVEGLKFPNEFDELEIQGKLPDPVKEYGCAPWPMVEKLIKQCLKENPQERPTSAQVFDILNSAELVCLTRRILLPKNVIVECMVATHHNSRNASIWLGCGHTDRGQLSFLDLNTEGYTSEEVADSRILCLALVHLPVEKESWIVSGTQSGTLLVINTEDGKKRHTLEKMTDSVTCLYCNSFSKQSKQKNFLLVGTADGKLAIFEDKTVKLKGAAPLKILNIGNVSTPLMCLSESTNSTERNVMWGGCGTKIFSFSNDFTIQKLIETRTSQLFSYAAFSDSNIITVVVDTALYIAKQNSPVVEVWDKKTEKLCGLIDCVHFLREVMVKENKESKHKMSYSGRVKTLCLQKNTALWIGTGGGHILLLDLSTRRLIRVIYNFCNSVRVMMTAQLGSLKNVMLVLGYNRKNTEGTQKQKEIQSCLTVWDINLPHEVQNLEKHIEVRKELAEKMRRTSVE
Procedure: LRRK2 was purified as previously described.[30] LRRK2 was diluted to a concentration of 150 nM or 200 nM and incubated with constrained peptide in a 1:7.5 ratio, for 30 min at 30 °C. Mass photometry was performed on a Refeyn Two^MP instrument.[30] The instrument was first focused with 10 μL of buffer (50 mM HEPES, 150 mM NaCl, 5 mM MgCl2, 1 mM DTT, 0.1 mM GDP, and 1% glycerol) after which 10 μL of the incubated LRRK2 solution was added. The samples were recorded for 1 min. Three measurements were processed for each condition, and the data were analyzed by GraphPad Prism.

[4] = biological target: T2, LRRK2 G2019S homodimers in HEK293T cells (Homo sapiens, UniProt Q5S007, G2019S); experiment: Proximity biotinylation of dimeric LRRK2 in cells; assay type: cell-based; details: FAM-labeled peptide 0.5–2.5 μM, 48 h treatment, ELISA of biotinylated LRRK2 normalized to total LRRK2, biological triplicates
T2 construct: expressed in transfected cells; host or cells: HEK293T
T2 sequence (Q5S007 whole entry G2019S): as the sequence (Q5S007 whole entry) above, with G2019S counted along it
Procedure: LRRK2 dimerization was assessed using either wild-type LRRK2 homodimers or LRRK2 G2019S homodimers. Experiments were carried out using various concentrations (0.5, μM, 1 μM, or 2.5 μM) of FAM-labeled ECOR or ECOR […]. The LRRK2 dimers used were purified as previously described.[18] To generate these dimers, two cDNAs encoding LRRK2 fusions with biotin ligase (BirA; N-term, Flag-tagged) or an acceptor peptide (AP, N-term; c-Myc tagged) were created. These constructs were expressed in HEK293T cells grown in biotin-depleted medium (OptiMEM+2% FBS). FAM-labeled ECO[…] and ECO[…] were diluted in serum-free medium and added 24 h after transfection. 48 h following the initial treatment (after 72 h of total expression), cells were washed in PBS, given a brief biotin pulse (50 μM, 5 min, 37 °C), washed three more times in PBS, and centrifuged. The cell pellet was snap frozen in a dry ice/methanol bath and stored at -80 °C until analysis. […] Protein-bound SA coated plates were incubated with HRP-conjugated anti-Flag antibodies for 1 h at room temperature to quantify dimeric LRRK2. Total LRRK2 overexpression was quantified using HRP-conjugated LRRK2 antibody (clone N241) on the parallel anti-LRRK2 coated plates (precoated with anti-LRRK2, clone c41-2) and was used to normalize dimeric LRRK2 content. […]

[5] = system: primary cortical neurons expressing LRRK2 G2019S; experiment: Neuronal apoptosis in primary cortical neurons; assay type: cell-based; details: primary cortical neurons (E16 C57BL mice) transfected with Flag-LRRK2 G2019S; 0.5–1 μM peptide, 48 h; % Flag-positive neurons with apoptotic nuclei; three biological replicates
Procedure: Neurons were then transfected using Lipofectamine 2000 with Flag-tagged WT LRRK2 or G2019S LRRK2. The following day, neurons were treated with 0.5 μM and 1 μM of both ECO[…] and ECO[…] for 48 h. Cells were washed in PBS and fixed in 3.7% paraformaldehyde for 20 min at 4 °C prior to antibody treatments. Images were analyzed and quantifications were performed as previously described.[30] For the determination of apoptotic neuronal death, fixed and stained neurons were visualized under a 40× magnification objective (dry). On each coverslip, a minimum of 100 Flag-positive neurons were identified and the percentage of those with apoptotic profiles was determined. Apoptotic nuclei were defined as neurons having condensed chromatin, fragmented into at least 2 or more “apoptotic bodies”.

MBP-tagged RocCOR LRRK2 = biological target: T3, MBP-tagged RocCOR LRRK2 (Homo sapiens, UniProt Q5S007); experiment: Fluorescence polarization (FP) binding assay, wild-type RocCOR; details: 10 nM FAM-labeled doubly stapled peptide, wild-type RocCOR 5 μM to 1 nM, 2 mM GTP, 10 mM MgCl2, 20 mM MOPS pH 7, 150 mM NaCl, 0.005% CHAPS, room temperature, 2 h, triplicate
T3 sequence (Q5S007 1328-1840 limits assumed): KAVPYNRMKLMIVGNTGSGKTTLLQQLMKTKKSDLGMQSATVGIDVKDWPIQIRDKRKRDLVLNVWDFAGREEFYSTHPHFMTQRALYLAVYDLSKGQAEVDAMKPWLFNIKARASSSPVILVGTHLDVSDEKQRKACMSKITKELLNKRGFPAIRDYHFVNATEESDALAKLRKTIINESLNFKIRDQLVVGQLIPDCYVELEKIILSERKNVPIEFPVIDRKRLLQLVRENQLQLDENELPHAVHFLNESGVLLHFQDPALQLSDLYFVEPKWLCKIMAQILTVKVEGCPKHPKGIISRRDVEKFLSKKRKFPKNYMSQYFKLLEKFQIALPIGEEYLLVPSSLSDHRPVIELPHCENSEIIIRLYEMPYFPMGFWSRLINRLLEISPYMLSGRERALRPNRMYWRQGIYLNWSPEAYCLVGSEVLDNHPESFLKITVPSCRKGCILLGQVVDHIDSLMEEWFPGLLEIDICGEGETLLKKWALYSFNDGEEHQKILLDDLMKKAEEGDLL
Procedure: Fluorescence polarization assays were conducted on the lead doubly constrained compounds (ECOR and ECOR A12G) with two separate LRRK2 protein constructs: MBP-tagged RocCOR LRRK2 and MBP-tagged R1441C RocCOR LRRK2, both in the presence of 2 mM GTP and 10 mM MgCl2. Protein/peptide interactions were measured in a FP buffer (20 mM MOPS, pH 7, 150 mM NaCl, and 0.005% CHAPS) at room temperature. FAM-labeled peptides were plated in 384-well microtiter plates at a final concentration of 10 nM. Proteins were added over concentrations ranging from 5 μM to 1 nM. Each protein/peptide interaction experiment was carried out at 10 different protein concentrations in triplicate. Each protein/peptide mixture was incubated at room temperature for 2 h and the final reading was performed at the end of this 2 h period.

[6] = 2.5 μM biotin-labeled peptide, 6 h, minimum 500 cells scored

SMILES | downregulation of Rab10 phosphorylation [1] | remaining at 6 h, 0.2 mM (in vitro) | localization of LRRK2 to microtubules as filamentous skein-like structures [2, 6] | inhibition of LRRK2 dimer formation [3] | downregulation of intracellular LRRK2 G2019S dimerization [4] | reduction of cortical neuronal apoptosis [5] | Kd (MBP-tagged RocCOR LRRK2) | inhibition of Rab10 phosphorylation ([1]; 1 μM MLi-2 (positive control)) | localization of LRRK2 to microtubules as filamentous skein-like structures ([2]; 1 μM MLi-2, 6 h)
CC(C)C[C@H](NC(=O)[C@H](CCCCN)NC(=O)[C@]1(C)CCCC=CCCC[C@](C)(NC(=O)[C@H](Cc2c[nH]cn2)NC(=O)[C@H](CCCCN)NC(=O)[C@H](CCC(=O)O)NC(=O)CNC(=O)[C@H](CC(=O)O)NC(=O)[C@H](CC(N)=O)NC(=O)[C@H](Cc2ccccc2)NC(=O)[C@H](CO)NC(=O)[C@H](Cc2ccc(O)cc2)NC(=O)[C@H](CC(C)C)NC(=O)CNC(=O)[C@H](Cc2c[nH]c3ccccc23)NC(=O)[C@]2(C)CCCC=CCCC[C@](C)(NC(=O)[C@H](CCC(=O)O)NC(=O)CNC(=O)[C@H](CCC(=O)O)NC(=O)CNC(=O)[C@H](CCCCN)NC(=O)COCCOCCOCCNC(=O)c3ccc4c(c3)C(=O)OC43c4ccc(O)cc4Oc4cc(O)ccc43)C(=O)N[C@@H](CC(C)C)C(=O)N[C@@H](CC(C)C)C(=O)N[C@@H](CCCCN)C(=O)N2)C(=O)N[C@@H](CCCCN)C(=O)N[C@@H](CCCCN)C(=O)N[C@@H](CC(C)C)C(=O)N1)C(N)=O [ECOR A12G] ({5FAM-AEEEA}-KGEGE[S5]LLK[S5]WGLYSFNDGEKH[S5]KKL[S5]KL-NH2; staple 6-10, 23-27) | ~40% | > 80% | no significant localization | strongest dimer inhibition | 50–60% | over 50% | 45 to 60 nM and 57 nM |  | 
CC(C)C[C@H](NC(=O)[C@H](CCCCN)NC(=O)[C@]1(C)CCCC=CCCC[C@](C)(NC(=O)[C@H](Cc2c[nH]cn2)NC(=O)[C@H](CCCCN)NC(=O)[C@H](CCC(=O)O)NC(=O)CNC(=O)[C@H](CC(=O)O)NC(=O)[C@H](CC(N)=O)NC(=O)[C@H](Cc2ccccc2)NC(=O)[C@H](CO)NC(=O)[C@H](Cc2ccc(O)cc2)NC(=O)[C@H](CC(C)C)NC(=O)[C@H](C)NC(=O)[C@H](Cc2c[nH]c3ccccc23)NC(=O)[C@]2(C)CCCC=CCCC[C@](C)(NC(=O)[C@H](CCC(=O)O)NC(=O)CNC(=O)[C@H](CCC(=O)O)NC(=O)CNC(=O)[C@H](CCCCN)NC(=O)COCCOCCOCCNC(=O)c3ccc4c(c3)C(=O)OC43c4ccc(O)cc4Oc4cc(O)ccc43)C(=O)N[C@@H](CC(C)C)C(=O)N[C@@H](CC(C)C)C(=O)N[C@@H](CCCCN)C(=O)N2)C(=O)N[C@@H](CCCCN)C(=O)N[C@@H](CCCCN)C(=O)N[C@@H](CC(C)C)C(=O)N1)C(N)=O [ECOR] ({5FAM-AEEEA}-KGEGE[S5]LLK[S5]WALYSFNDGEKH[S5]KKL[S5]KL-NH2; staple 6-10, 23-27) | not found to have measurable effects | > 80% | no significant localization |  | 50–60% | over 50% | 45 to 60 nM and 45 nM |  | 
C[C@@H]1CN(c2cc(-c3n[nH]c4ccc(OC5(C)CC5)cc34)ncn2)C[C@H](C)O1 [MLi-2, reference compound] |  |  |  |  |  |  |  | nearly completely inhibited | considerable colocalization with tubulin
